pIC50: −log10 of the molar value.
Experiments:
human Gal-3 (hGal-3) = human Gal-3 (hGal-3) (Homo sapiens (Human), UniProt P17931); assay: Competitive binding assay: binding of biotinylated hGal-3 to microplate-adsorbed asialofetuin (ASF); conditions: Activity on hGal-3; mean values of several measurements
Procedure, shortened: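 Biotinylated hGal-3 (300-1000 ng/mL) bound to ASF-coated wells with serially diluted compound, 3 h at 4° C. After washing, bound protein was detected with streptavidin-peroxidase (80 ng/mL, 1 h, 4° C) and ABTS substrate; IC50 values are means of several measurements.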

human Gal-1 (hGal-1) = assay: Competitive binding assay: binding of biotinylated hGal-1 to microplate-adsorbed asialofetuin (ASF); conditions: Activities on hGal-1; mean values of several measurements
Procedure, shortened: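 Compounds diluted in DMSO competed with biotinylated hGal-3 or hGal-1 (300-1000 ng/mL) for binding to plate-adsorbed asialofetuin for 3 h at 4° C. Bound galectin was detected with streptavidin-peroxidase (80 ng/mL, 1 h, 4° C) and ABTS substrate; IC50 reported as mean of several measurements.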

Chain of human Gal-3 (hGal-3) (P17931 whole entry): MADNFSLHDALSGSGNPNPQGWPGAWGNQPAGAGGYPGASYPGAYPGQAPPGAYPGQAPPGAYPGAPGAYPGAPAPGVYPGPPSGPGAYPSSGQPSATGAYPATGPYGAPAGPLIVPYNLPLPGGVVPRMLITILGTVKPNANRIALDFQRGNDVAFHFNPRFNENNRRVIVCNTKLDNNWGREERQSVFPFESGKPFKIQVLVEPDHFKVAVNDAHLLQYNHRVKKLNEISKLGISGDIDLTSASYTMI
Chain of human Gal-1 (hGal-1) (P09382 2-135 limits assumed): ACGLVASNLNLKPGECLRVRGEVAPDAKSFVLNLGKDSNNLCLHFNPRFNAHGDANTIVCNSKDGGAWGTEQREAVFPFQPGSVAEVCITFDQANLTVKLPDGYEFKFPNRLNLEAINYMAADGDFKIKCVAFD

CO[C@@H]1[C@@H](n2cc(-c3cc(F)c(F)c(F)c3)nn2)[C@@H](O)[C@@H](CO)O[C@@H]1CC1=NO[C@H](C2CCCCC2)C1 [Ex 1.129]
pIC50 (human Gal-3 (hGal-3)): 6.57 | pIC50 (human Gal-1 (hGal-1)): 4.83

CO[C@@H]1[C@@H](n2cc(-c3cc(F)c(F)c(F)c3)nn2)[C@@H](O)[C@@H](CO)O[C@@H]1Cc1cc(C23CCC(NC(=O)OC(C)(C)C)(CC2)CC3)on1 [Ex 1.130]
pIC50 (human Gal-3 (hGal-3)): 6.59 | pIC50 (human Gal-1 (hGal-1)): 4.74

CO[C@@H]1[C@@H](n2cc(-c3cc(F)c(F)c(F)c3)nn2)[C@@H](O)[C@@H](CO)O[C@@H]1Cc1cc(C23CCC(N)(CC2)CC3)on1 [Ex 1.131]
pIC50 (human Gal-3 (hGal-3)): 6.85 | pIC50 (human Gal-1 (hGal-1)): 5.13

CO[C@@H]1[C@@H](n2cc(-c3cc(F)c(F)c(F)c3)nn2)[C@@H](O)[C@@H](CO)O[C@@H]1Cc1cc(C2(O)CCN(C(=O)OC(C)(C)C)CC2)on1 [Ex 1.132]
pIC50 (human Gal-3 (hGal-3)): 7.16 | pIC50 (human Gal-1 (hGal-1)): 6.12

CO[C@@H]1[C@@H](n2cc(-c3cc(F)c(F)c(F)c3)nn2)[C@@H](O)[C@@H](CO)O[C@@H]1Cc1cc(C2(O)CCNCC2)on1 [Ex 1.133]
pIC50 (human Gal-3 (hGal-3)): 6.64 | pIC50 (human Gal-1 (hGal-1)): 4.97

CO[C@@H]1[C@@H](n2cc(-c3cc(F)c(F)c(F)c3)nn2)[C@@H](O)[C@@H](CO)O[C@@H]1Cc1cc(C2CCC(NC(=O)OC(C)(C)C)CC2)no1 (some centres unmarked) [Ex 1.134]
pIC50 (human Gal-3 (hGal-3)): 7.08 | pIC50 (human Gal-1 (hGal-1)): 4.97

CO[C@@H]1[C@@H](n2cc(-c3cc(F)c(C)c(F)c3)nn2)[C@@H](O)[C@@H](CO)O[C@@H]1CC1CC(C2CCN(C(=O)OC(C)(C)C)CC2)=NO1 (some centres unmarked) [Ex 1.135]
pIC50 (human Gal-3 (hGal-3)): 7.00 | pIC50 (human Gal-1 (hGal-1)): 5.05

CO[C@@H]1[C@@H](n2cc(-c3ccc(C)c(F)c3)nn2)[C@@H](O)[C@@H](CO)O[C@@H]1CC1CC(C2CCN(C(=O)OC(C)(C)C)CC2)=NO1 (some centres unmarked) [Ex 1.136]
pIC50 (human Gal-3 (hGal-3)): 6.95 | pIC50 (human Gal-1 (hGal-1)): 5.32

CO[C@@H]1[C@@H](n2cc(-c3ccc(C)c(F)c3F)nn2)[C@@H](O)[C@@H](CO)O[C@@H]1CC1CC(C2CCN(C(=O)OC(C)(C)C)CC2)=NO1 (some centres unmarked) [Ex 1.137]
pIC50 (human Gal-3 (hGal-3)): 7.32 | pIC50 (human Gal-1 (hGal-1)): 5.73

CN=[S@@](=O)(C(C)C)N1CCC(c2cc(C[C@H]3O[C@H](CO)[C@H](O)[C@H](n4cc(-c5cc(F)c(F)c(F)c5)nn4)[C@H]3OC)no2)CC1 [Ex 1.138]
pIC50 (human Gal-3 (hGal-3)): 6.89 | pIC50 (human Gal-1 (hGal-1)): 4.82

CN=[S@](=O)(C(C)C)N1CCC(c2cc(C[C@H]3O[C@H](CO)[C@H](O)[C@H](n4cc(-c5cc(F)c(F)c(F)c5)nn4)[C@H]3OC)no2)CC1 [Ex 1.139]
pIC50 (human Gal-3 (hGal-3)): 7.38 | pIC50 (human Gal-1 (hGal-1)): 5.95

CO[C@@H]1[C@@H](n2cc(-c3ccc(Cl)c(F)c3F)nn2)[C@@H](O)[C@@H](CO)O[C@@H]1CC1CC(C2CCN(C(=O)OC(C)(C)C)CC2)=NO1 (some centres unmarked) [Ex 1.140]
pIC50 (human Gal-3 (hGal-3)): 7.31 | pIC50 (human Gal-1 (hGal-1)): 6.16

CO[C@@H]1[C@@H](n2cc(-c3ccc(Br)c(F)c3F)nn2)[C@@H](O)[C@@H](CO)O[C@@H]1CC1CC(C2CCN(C(=O)OC(C)(C)C)CC2)=NO1 (some centres unmarked) [Ex 1.141]
pIC50 (human Gal-3 (hGal-3)): 7.01 | pIC50 (human Gal-1 (hGal-1)): 6.10

CO[C@@H]1[C@@H](n2cc(-c3ccc(Br)c(F)c3F)nn2)[C@@H](O)[C@@H](CO)O[C@@H]1CC1CC(C2CCNCC2)=NO1 (some centres unmarked) [Ex 1.142]
pIC50 (human Gal-3 (hGal-3)): 7.15 | pIC50 (human Gal-1 (hGal-1)): 5.88

CO[C@@H]1[C@@H](n2cc(-c3ccc(F)c(F)c3F)nn2)[C@@H](O)[C@@H](CO)O[C@@H]1CC1CC(C2CCN(C(=O)OC(C)(C)C)CC2)=NO1 (some centres unmarked) [Ex 1.143]
pIC50 (human Gal-3 (hGal-3)): 7.00 | pIC50 (human Gal-1 (hGal-1)): 6.72

CO[C@@H]1[C@@H](n2cc(-c3ccc(F)c(F)c3F)nn2)[C@@H](O)[C@@H](CO)O[C@@H]1CC1CC(C2CCNCC2)=NO1 (some centres unmarked) [Ex 1.144]
pIC50 (human Gal-3 (hGal-3)): 6.74 | pIC50 (human Gal-1 (hGal-1)): 6.13

CO[C@@H]1[C@@H](n2cc(-c3cc(F)c(Cl)c(F)c3)nn2)[C@@H](O)[C@@H](CO)O[C@@H]1CC1CC(C2CCN(C(=O)OC(C)(C)C)CC2)=NO1 (some centres unmarked) [Ex 1.145]
pIC50 (human Gal-3 (hGal-3)): 6.77 | pIC50 (human Gal-1 (hGal-1)): 5.81

CO[C@@H]1[C@@H](n2cc(-c3cc(F)c(Cl)c(F)c3)nn2)[C@@H](O)[C@@H](CO)O[C@@H]1CC1CC(C2CCNCC2)=NO1 (some centres unmarked) [Ex 1.146]
pIC50 (human Gal-3 (hGal-3)): 6.62 | pIC50 (human Gal-1 (hGal-1)): 5.33

CCOC(=O)N1CCC(c2cc(C[C@H]3O[C@H](CO)[C@H](O)[C@H](n4cc(-c5ccc(Cl)c(F)c5)nn4)[C@H]3OC)no2)CC1 [Ex 1.149]
pIC50 (human Gal-3 (hGal-3)): 7.08 | pIC50 (human Gal-1 (hGal-1)): 6.33

CCOC(=O)N1CCC(c2cc(C[C@H]3O[C@H](CO)[C@H](O)[C@H](n4cc(-c5ccc(F)c(F)c5F)nn4)[C@H]3OC)no2)CC1 [Ex 1.150]
pIC50 (human Gal-3 (hGal-3)): 7.64 | pIC50 (human Gal-1 (hGal-1)): 6.85

CCOC(=O)N1CCC(c2cc(C[C@H]3O[C@H](CO)[C@H](O)[C@H](n4cc(-c5ccc(C)c(F)c5F)nn4)[C@H]3OC)no2)CC1 [Ex 1.151]
pIC50 (human Gal-3 (hGal-3)): 7.72 | pIC50 (human Gal-1 (hGal-1)): 5.99

CO[C@@H]1[C@@H](n2cc(-c3cc(F)c(C)c(F)c3)nn2)[C@@H](O)[C@@H](CO)O[C@@H]1Cc1cc(C2CCN(S(C)(=O)=O)CC2)on1 [Ex 1.152]
pIC50 (human Gal-3 (hGal-3)): 7.41 | pIC50 (human Gal-1 (hGal-1)): 5.82

CO[C@@H]1[C@@H](n2cc(-c3ccc(C)c(F)c3)nn2)[C@@H](O)[C@@H](CO)O[C@@H]1Cc1cc(C2CCN(S(C)(=O)=O)CC2)on1 [Ex 1.153]
pIC50 (human Gal-3 (hGal-3)): 7.17 | pIC50 (human Gal-1 (hGal-1)): 5.80

CO[C@@H]1[C@@H](n2cc(-c3ccc(Cl)c(F)c3F)nn2)[C@@H](O)[C@@H](CO)O[C@@H]1Cc1cc(C2CCN(S(C)(=O)=O)CC2)on1 [Ex 1.154]
pIC50 (human Gal-3 (hGal-3)): 7.48 | pIC50 (human Gal-1 (hGal-1)): 6.44

CO[C@@H]1[C@@H](n2cc(-c3ccc(Cl)c(F)c3)nn2)[C@@H](O)[C@@H](CO)O[C@@H]1Cc1cc(C2CCN(S(C)(=O)=O)CC2)on1 [Ex 1.156]
pIC50 (human Gal-3 (hGal-3)): 7.51 | pIC50 (human Gal-1 (hGal-1)): 6.03

CO[C@@H]1[C@@H](n2cc(-c3ccc(F)c(F)c3F)nn2)[C@@H](O)[C@@H](CO)O[C@@H]1Cc1cc(C2CCN(S(C)(=O)=O)CC2)on1 [Ex 1.157]
pIC50 (human Gal-3 (hGal-3)): 7.52 | pIC50 (human Gal-1 (hGal-1)): 7.03

CO[C@@H]1[C@@H](n2cc(-c3cc(F)c(Cl)c(F)c3)nn2)[C@@H](O)[C@@H](CO)O[C@@H]1Cc1cc(C2CCN(S(C)(=O)=O)CC2)on1 [Ex 1.158]
pIC50 (human Gal-3 (hGal-3)): 7.18 | pIC50 (human Gal-1 (hGal-1)): 5.82

CO[C@@H]1[C@@H](n2cc(-c3ccc(C)c(F)c3F)nn2)[C@@H](O)[C@@H](CO)O[C@@H]1Cc1cc(C2CCN(S(C)(=O)=O)CC2)on1 [Ex 1.159]
pIC50 (human Gal-3 (hGal-3)): 7.24 | pIC50 (human Gal-1 (hGal-1)): 5.82

CO[C@@H]1[C@@H](n2cc(-c3cc(F)cc(Cl)c3)nn2)[C@@H](O)[C@@H](CO)O[C@@H]1Cc1cc(C2CCN(S(C)(=O)=O)CC2)on1 [Ex 1.160]
pIC50 (human Gal-3 (hGal-3)): 7.11 | pIC50 (human Gal-1 (hGal-1)): 6.14

CO[C@@H]1[C@@H](n2cc(-c3cc(F)c(C)c(F)c3)nn2)[C@@H](O)[C@@H](CO)O[C@@H]1Cc1cc(C2CCN(C(C)=O)CC2)on1 [Ex 1.161]
pIC50 (human Gal-3 (hGal-3)): 7.47 | pIC50 (human Gal-1 (hGal-1)): 5.78

CO[C@@H]1[C@@H](n2cc(-c3ccc(C)c(F)c3)nn2)[C@@H](O)[C@@H](CO)O[C@@H]1Cc1cc(C2CCN(C(C)=O)CC2)on1 [Ex 1.162]
pIC50 (human Gal-3 (hGal-3)): 7.43 | pIC50 (human Gal-1 (hGal-1)): 6.13

CO[C@@H]1[C@@H](n2cc(-c3ccc(Br)c(F)c3F)nn2)[C@@H](O)[C@@H](CO)O[C@@H]1Cc1cc(C2CCN(C(C)=O)CC2)on1 [Ex 1.164]
pIC50 (human Gal-3 (hGal-3)): 7.42 | pIC50 (human Gal-1 (hGal-1)): 5.97

CO[C@@H]1[C@@H](n2cc(-c3ccc(Cl)c(F)c3)nn2)[C@@H](O)[C@@H](CO)O[C@@H]1Cc1cc(C2CCN(C(C)=O)CC2)on1 [Ex 1.165]
pIC50 (human Gal-3 (hGal-3)): 7.23 | pIC50 (human Gal-1 (hGal-1)): 6.17

CO[C@@H]1[C@@H](n2cc(-c3ccc(F)c(F)c3F)nn2)[C@@H](O)[C@@H](CO)O[C@@H]1Cc1cc(C2CCN(C(C)=O)CC2)on1 [Ex 1.166]
pIC50 (human Gal-3 (hGal-3)): 7.59 | pIC50 (human Gal-1 (hGal-1)): 6.59

From patent US12319672B2, “Alpha-D-galactopyranoside derivatives” (Idorsia Pharmaceuticals Ltd, priority 2019, dated 2025)
